Test results as given in PubChem BioAssay AID2060890 (Molecular Pharmacology Branch, DTP, NCI, 2025).

System: LG0703-F948-PDC complex spheroid viability
Assay: Anticancer human tumor LG0703-F948-PDC patient-derived lung adenocarcinoma cell line growth inhibition [RAS]
Settings: for IC50: curve of first compound; for viability, T/C: stronger effect = lower value; active = viability on the fitted dose curve at most 10% of control; inactive = the rest
Outline: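 Multi-cell-type spheroids: tumor cells plus HUVEC endothelial cells and mesenchymal stem cells. RAS-pathway inhibitors were combined with targeted agents, each dosed in half-log steps down from clinical Cmax, or from 10 microM when Cmax was unknown.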

[1] = second compound 0.000949 µM, first compound 0.0316 µM
[2] = second compound 0.000949 µM, first compound 0.1 µM
[3] = second compound 0.000949 µM, first compound 0.316 µM
[4] = second compound 0.000949 µM, first compound 1 µM
[5] = second compound 0.000949 µM, first compound 3.16 µM
[6] = second compound 0.000949 µM, first compound 10 µM
[7] = second compound 0.003 µM, first compound 0.0316 µM
[8] = second compound 0.003 µM, first compound 0.1 µM
[9] = second compound 0.003 µM, first compound 0.316 µM
[10] = second compound 0.003 µM, first compound 1 µM
[11] = second compound 0.003 µM, first compound 3.16 µM
[12] = second compound 0.003 µM, first compound 10 µM
[13] = second compound 0.00949 µM, first compound 0.0316 µM
[14] = second compound 0.00949 µM, first compound 0.1 µM
[15] = second compound 0.00949 µM, first compound 0.316 µM
[16] = second compound 0.00949 µM, first compound 1 µM
[17] = second compound 0.00949 µM, first compound 3.16 µM
[18] = second compound 0.00949 µM, first compound 10 µM
[19] = second compound 0.03 µM, first compound 0.0316 µM
[20] = second compound 0.03 µM, first compound 0.1 µM
[21] = second compound 0.03 µM, first compound 0.316 µM
[22] = second compound 0.03 µM, first compound 1 µM
[23] = second compound 0.03 µM, first compound 3.16 µM
[24] = second compound 0.03 µM, first compound 10 µM
[25] = second compound 0.0949 µM, first compound 0.0316 µM
[26] = second compound 0.0949 µM, first compound 0.1 µM
[27] = second compound 0.0949 µM, first compound 0.316 µM
[28] = second compound 0.0949 µM, first compound 1 µM
[29] = second compound 0.0949 µM, first compound 3.16 µM
[30] = second compound 0.0949 µM, first compound 10 µM
[31] = second compound 0.3 µM, first compound 0.0316 µM
[32] = second compound 0.3 µM, first compound 0.1 µM
[33] = second compound 0.3 µM, first compound 0.316 µM
[34] = second compound 0.3 µM, first compound 1 µM
[35] = second compound 0.3 µM, first compound 3.16 µM
[36] = second compound 0.3 µM, first compound 10 µM
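Also: spheroids exposed to agents for 7 days.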
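For viability, T/C in this document: 100% = DMSO vehicle wells.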

CCN1CCN(Cc2ccc(Nc3ncc(F)c(-c4cc(F)c5nc(C)n(C(C)C)c5c4)n3)nc2)CC1 + C#Cc1c(F)ccc2cc(O)cc(-c3ncc4c(N5CC6CCC(C5)N6)nc(OCC56CCCN5CC(F)C6)nc4c3F)c12
inactive: viability, T/C (second compound 0.0316 µM, first compound 0.00316 µM) 114% | viability, T/C (second compound 0.0316 µM, first compound 0.01 µM) 84% | viability, T/C (second compound 0.0316 µM, first compound 0.0316 µM) 78.3% | viability, T/C (second compound 0.0316 µM, first compound 0.1 µM) 92.2% | viability, T/C (second compound 0.0316 µM, first compound 0.316 µM) 82.7% | viability, T/C (second compound 0.0316 µM, first compound 1 µM) 79.8% | viability, T/C (second compound 0.1 µM, first compound 0.00316 µM) 119% | viability, T/C (second compound 0.1 µM, first compound 0.01 µM) 90.3% | viability, T/C (second compound 0.1 µM, first compound 0.0316 µM) 92.1% | viability, T/C (second compound 0.1 µM, first compound 0.1 µM) 90.5% | viability, T/C (second compound 0.1 µM, first compound 0.316 µM) 74% | viability, T/C (second compound 0.1 µM, first compound 1 µM) 69.7% | viability, T/C (second compound 0.316 µM, first compound 0.00316 µM) 103% | viability, T/C (second compound 0.316 µM, first compound 0.01 µM) 99.5% | viability, T/C (second compound 0.316 µM, first compound 0.0316 µM) 84.5% | viability, T/C (second compound 0.316 µM, first compound 0.1 µM) 81.1% | viability, T/C (second compound 0.316 µM, first compound 0.316 µM) 75.5% | viability, T/C (second compound 0.316 µM, first compound 1 µM) 70% | viability, T/C (second compound 1 µM, first compound 0.00316 µM) 84% | viability, T/C (second compound 1 µM, first compound 0.01 µM) 77.7% | viability, T/C (second compound 1 µM, first compound 0.0316 µM) 68.5% | viability, T/C (second compound 1 µM, first compound 0.1 µM) 68.7% | viability, T/C (second compound 1 µM, first compound 0.316 µM) 77.6% | viability, T/C (second compound 1 µM, first compound 1 µM) 64.1% | viability, T/C (second compound 3.16 µM, first compound 0.00316 µM) 73.2% | viability, T/C (second compound 3.16 µM, first compound 0.01 µM) 71.9% | viability, T/C (second compound 3.16 µM, first compound 0.0316 µM) 56.8% | viability, T/C (second compound 3.16 µM, first compound 0.1 µM) 57% | viability, T/C (second compound 3.16 µM, first compound 0.316 µM) 71.3% | viability, T/C (second compound 3.16 µM, first compound 1 µM) 45% | viability, T/C (second compound 10 µM, first compound 0.00316 µM) 62.5% | viability, T/C (second compound 10 µM, first compound 0.01 µM) 44.3% | viability, T/C (second compound 10 µM, first compound 0.0316 µM) 47.7% | viability, T/C (second compound 10 µM, first compound 0.1 µM) 47.5% | viability, T/C (second compound 10 µM, first compound 0.316 µM) 49.5% | viability, T/C (second compound 10 µM, first compound 1 µM) 36.9%
7.25 nM: IC50 (second compound 10 µM)
> 1000 nM: IC50 (second compound 0.0316 µM) | IC50 (second compound 0.1 µM) | IC50 (second compound 0.316 µM) | IC50 (second compound 1 µM) | IC50 (second compound 3.16 µM)

C[C@@H](NC(=O)c1ncnc(N)c1Cl)c1ncc(C(=O)Nc2cc(C(F)(F)F)c(Cl)cn2)s1 + CCn1c(-c2cccnc2C(C)OC)c2c3cc(ccc31)N1CCOC(CC(NC(=O)C(C(C)C)N(C)C(=O)C3(F)CCN(C(=O)C#CC(C)(C)N(C)C)CC3)C(=O)N3CCCC(N3)C(=O)OCC(C)(C)C2)C1
> 10000 nM: IC50 (second compound 0.000949 µM) | IC50 (second compound 0.003 µM) | IC50 (second compound 0.00949 µM) | IC50 (second compound 0.03 µM) | IC50 (second compound 0.0949 µM)
< 31.6 nM: IC50 (second compound 0.3 µM)
inactive: viability, T/C [1] 87.6% | viability, T/C [2] 106% | viability, T/C [3] 118% | viability, T/C [4] 110% | viability, T/C [5] 102% | viability, T/C [6] 90.1% | viability, T/C [7] 106% | viability, T/C [8] 102% | viability, T/C [9] 85.5% | viability, T/C [10] 113% | viability, T/C [11] 103% | viability, T/C [12] 105% | viability, T/C [13] 94.1% | viability, T/C [14] 108% | viability, T/C [15] 91% | viability, T/C [16] 103% | viability, T/C [17] 92.3% | viability, T/C [18] 87.7% | viability, T/C [19] 99.6% | viability, T/C [20] 105% | viability, T/C [21] 88.4% | viability, T/C [22] 97% | viability, T/C [23] 107% | viability, T/C [24] 82.2% | viability, T/C [25] 74.4% | viability, T/C [26] 71.1% | viability, T/C [27] 81.7% | viability, T/C [28] 78.3% | viability, T/C [29] 88.4% | viability, T/C [30] 65.9% | viability, T/C [31] 43.5% | viability, T/C [32] 42.9% | viability, T/C [33] 48.6% | viability, T/C [34] 54% | viability, T/C [35] 48.1% | viability, T/C [36] 37.5%

CC(=O)OC12COC1CC(O)C1(C)C(=O)C(O)C3=C(C)C(OC(=O)C(O)C(NC(=O)OC(C)(C)C)c4ccccc4)CC(O)(C(OC(=O)c4ccccc4)C21)C3(C)C (stereo unspecified) + CCn1c(-c2cccnc2C(C)OC)c2c3cc(ccc31)N1CCOC(CC(NC(=O)C(C(C)C)N(C)C(=O)C3(F)CCN(C(=O)C#CC(C)(C)N(C)C)CC3)C(=O)N3CCCC(N3)C(=O)OCC(C)(C)C2)C1
< 31.6 nM: IC50 (second compound 0.000949 µM) | IC50 (second compound 0.003 µM) | IC50 (second compound 0.00949 µM) | IC50 (second compound 0.03 µM) | IC50 (second compound 0.0949 µM) | IC50 (second compound 0.3 µM)
inactive: viability, T/C [1] 40.1% | viability, T/C [2] 36.8% | viability, T/C [3] 36.3% | viability, T/C [4] 39.4% | viability, T/C [5] 44.2% | viability, T/C [6] 41% | viability, T/C [7] 37.7% | viability, T/C [8] 35.4% | viability, T/C [9] 41.1% | viability, T/C [10] 42.1% | viability, T/C [11] 38.7% | viability, T/C [12] 35.6% | viability, T/C [13] 36.5% | viability, T/C [14] 36.7% | viability, T/C [15] 36.6% | viability, T/C [16] 40.9% | viability, T/C [17] 49.5% | viability, T/C [18] 46.9% | viability, T/C [19] 33.5% | viability, T/C [20] 35.5% | viability, T/C [21] 36.5% | viability, T/C [22] 40.3% | viability, T/C [23] 42.5% | viability, T/C [24] 34% | viability, T/C [25] 39% | viability, T/C [26] 32.7% | viability, T/C [27] 33.4% | viability, T/C [28] 34% | viability, T/C [29] 35.6% | viability, T/C [30] 37.1% | viability, T/C [31] 28.5% | viability, T/C [32] 22.3% | viability, T/C [33] 22.4% | viability, T/C [34] 23.4% | viability, T/C [35] 23.7% | viability, T/C [36] 20.9%
